Experiments:
[1] = system: OPCs derived from WT P7 rat pups; assay: Differentiation of isolated OPCs treated with SERMs (MBP/PDGFRα/DAPI immunostaining); type: cell-based; settings: 500 nM for 48 hours
Description: Example 3. OPC Differentiation. To assess the effect of selected SERMs on myelination, OPCs were derived from WT P7 rat pups using previously validated methodology, cultured in isolation, and treated with a select group of SERMs at a preliminary concentration of 500 nM for 48 hours. Cells were then permeabilized and immunostained for MBP (oligodendrocytes), PDGFRα (OPCs), and DAPI (cell bodies).

[2] = system: demyelinated lesion in corpus callosum; assay: Lysolecithin-induced demyelination of the corpus callosum; type: in vivo; settings: mice, 10 mg/kg for 7 days after lysolecithin, 10 days post injection, vs vehicle
Description: Example 5. Effects of BZA on OPC Differentiation. Lysolecithin was injected in the corpus callosum of mice and analyzed at 6 days after injection, showing a demyelinated lesion area. Mice were treated with either BZA (10 mg/kg) or vehicle control for 7 days after injection of lysolecithin. Mice were euthanized at 10 days post injection and brains were sectioned and immunostained for myelin oligodendrocyte glycoprotein peptide (MOG), Adenomatous polyposis coli (APC-a maker of mature oligodendrocytes) and Olig2. Quantification of APC-positive cells indicated a 2-fold increase in remyelination in the corpus callosum after treatment with BZA, as depicted in FIG. 3.
Example 6. BZA effects on remyelination kinetics. Toxic, focal demyelinating injury was induced in the corpus callosum of 8-week old adult mice the rate and extent of remyelination was assessed, using previously described methodology. Demyelination was induced by injecting 1 μl of 1% solution of lysolecithin. Essential to this demyelinating model is the timeline for repair, comprising active demyelination [1-3 days post lesion (dpl)], OPC recruitment (3-7 dpl, peaking at 5 dpl), oligodendrocyte differentiation (7-10 dpl) and active remyelination (14-21 dpl). Oligodendrocyte differentiation and remyelination at 10 dpl was analyzed, allowing assessment of BZA effects on the kinetics of myelin repair. […]

Row | Compound | OPC differentiation [1] | increase in remyelination (APC-positive cells) in the corpus callosum [2]
1 | N#CC(Cc1ccc(O)cc1)c1ccc(O)cc1 (stereo not drawn) [2,3-bis(4-hydroxyphenyl)-propionitrile] | significantly enhanced OPC differentiation | 
2 | Cc1c(-c2ccc(O)cc2)n(Cc2ccc(OCCN3CCCCCC3)cc2)c2ccc(O)cc12 [BZA, bazedoxifene] |  | 2 fold
3 | CC/C(=C(\c1ccccc1)c1ccc(OCCN(C)C)cc1)c1ccccc1 [tamoxifen] | significantly enhanced OPC differentiation | 
